Patent publication US11759480B2, “Compositions and methods for CAR T cell therapy” (ENDOCYTE, INC., priority 2017, dated 2023)
Values belong to the compound of their own block, whether it stands above or below them.

Key:
[1] = test system: MDA-MB-231 solid tumor xenografts; format: in vivo
Procedure: MDA-MB-231 cells were subcutaneously injected into the shoulders of NSG mice (Jackson Laboratory) to establish solid tumor xenografts. When tumor volume reached around 50-100 mm^3, anti-FITC CAR T cells (15×10^6 cells) were intravenously introduced into tumor-bearing mice. Twenty NSG mice were divided into four study groups (5 animals in each group). The first group was treated with anti-FITC CAR T cells with phosphate-buffered saline (PBS) as a negative control. The second, third, and fourth groups were treated with anti-FITC CAR T cells with FITC-Folate (500 nmole/kg) every other day. Once a significant toxicity (e.g. serious loss of body weight) was detected, these groups were treated with either: continued FITC-Folate administration (second group); discontinuation of FITC-Folate administration until the mice recovered (third group); or a mixture of 100-fold excess of EC0923 (i.e. free folate) and FITC-Folate until the mice recovered (fourth group). The body weight was measured regularly to monitor toxicity. In addition, the blood concentration of interferon (IFN)-gamma for each treatment group was measured to monitor the degree of anti-FITC CAR T activation. Finally, tumor volume was measured to identify anti-tumor efficacy in each treatment group.

[2] = test system: MDA-MB-231 solid tumor xenografts; assay: Control of CAR T cell activation in vivo: break, FA competitor or both (Example 19)
Procedure: Five study groups were designed to test whether anti-FITC CAR T cell activation can be controlled via temporal termination of FITC-ligands, by administering a competitor small molecule, or a combination approach of both discontinuing of FITC-ligands and/or administering an FA competitor. The first group was treated by administering anti-FITC CAR T cell with phosphate-buffered saline (PBS) as a negative control. Every other day over the course of the study, the second, third, fourth and fifth groups were treated with anti-FITC CAR T cell mixed with FITC-Folate (500 nmole/kg). […] Mouse bodyweight was measured regularly to test for toxicity.

[3] = test system: severe cytokine release syndrome in mice bearing tumors; assay: Rescue ability of EC0923 during CAR T cell treatment (Example 18); format: in vivo
Procedure: CAR T cells were introduced into mice bearing tumors and EC17 was also introduced (i.v.) three times per week. When severe cytokine release syndrome was observed, one dose of EC0923 at 10 μmoles/kg was introduced to rescue mice. Mice were monitored for 4 more days, and some were euthanized to evaluate organs. Mice with one dose of EC0923 started to move and look for food after 4 hours, and their spleens and livers were red. Control mice without EC0923 didn't move after 6 hours, and their spleens and livers were pale. Mice with EC0923 treatment were active again in 24 hours and expected to survive, and were put back to a normal EC17 dosing schedule. Control mice without EC0923 started to move a little in 24 hours, but had to be euthanized to prevent animal suffering. Mice with EC0923 looked normal in 4 days. One of the mice was euthanized and found to have normal colored spleen and liver. […] Other remaining mice with EC0923 were given routine EC17 dosing three times per week, and their tumors disappeared in 4 weeks.

[4] = test system: MDA-MB-231 tumors; assay: Rescue ability of competitors during CAR T cell treatment (Example 23); format: in vivo, mice; conditions: for time until mice looked normal / time until mice started to move and look for food / time until mice were active again: one i.v. dose 10 μmoles/kg at sCRS
Procedure: When severe cytokine release syndrome was observed, one dose of EC0923 (folate) or untethered fluorescein (both at 10 μmoles/kg) was introduced intravenously to rescue mice (FIG. 16). Mice with one dose of EC0923 or fluorescein started to move and look for food after 4 hours, were active again in 24 hours, and looked normal in 4 days. EC17 administration was then continued. Control mice without EC0923 or fluorescein didn't move after 4 hours, and had to be euthanized because of the sickness. […] All mice tested for cytokine production were injected with 8 million CAR-T cells.

[5] = test system: MDA-MB-231 tumors; assay: CAR-T number in blood after rescue with EC0923 or fluoresceinamine (Example 31); format: in vivo, NSG mice; conditions: for earliest time of increased CAR-T count in blood: 10 umol/kg i.v.; for CAR-T number in blood: 10 umol/kg i.v. at sCRS
Procedure: EC17/CAR-T therapy strategy is controllable through bridge displacement by either free folate or free fluorescein. […] Mice from three groups were then euthanized at 8, 12, 24 and 48 hours post injection of EC0923 or fluoresceinamine, and their blood samples were analyzed for CAR-T cell number and cytokine levels. CAR-T cells in blood were stained with anti-human CD45 antibody labeled with APCeF780 (Biolegend) and counted by FACS. CountBright™ Absolute Counting Beads (ThermoFisher Scientific) were mixed into the samples and used as a reference for cell counting.

[6] = test system: anti-fluorescein scFv on CAR T cells; assay: Competitive binding assay against FITC-Alexa647 on CAR T cells; conditions: 1 μM competing ligand versus FITC-Alexa647 10 nM
Procedure: To examine the ability of bridge molecules to bind anti-fluorescein scFv on CAR T cells, a competitive binding assay was developed. Measurement of the fluorescein signal from CAR T cell bound bridges could not be used due to the overlap of its fluorescence with that of the GFP expressing CAR T cells. For this purpose, FITC-Alexa647 (10 nM) was allowed to bind anti-fluorescein CAR T cells in the absence or presence of excess (1 μM) competing ligand (i.e. FITC-folate, FITC-DUPA, FITC-CA9) for 1 h at room temperature. After incubation, anti-fluorescein CAR T cells were washed 3× with PBS to remove unbounded FITC-Alexa647, and the washed cells were analyzed for Alexa647 fluorescence by flow cytometry.
Fluorescein-folate (FITC-folate) and fluorescein-PSMA (FITC-DUPA) were synthesized as previously described. To examine the ability of these bridge molecules to bind anti-fluorescein scFv on CAR T cells, a competitive binding assay had to be developed, because measurement of the fluorescein signal from CAR T cell bound bridge could not be used due to the overlap of its fluorescence with that of the GFP expressing CAR T cells. For this purpose, FITC-Alexa647 (10 nM) was allowed to bind anti-fluorescein CAR T cells in the absence or presence of excess (1 μM) competing ligand (i.e. FITC-folate) for 1 h at room temperature. After incubation, anti-fluorescein CAR T cells were washed 3× with PBS to remove unbounded FITC-Alexa647, and the washed cells were analyzed for Alexa647 fluorescence by flow cytometry. For analysis of FITC-folate to binding to folate receptor, FR positive KB cells were incubated with FITC-folate (100 nM) in the absence or presence of excess (10 μM) free folate (i.e. as a competitive ligand). After washing samples with PBS (3 times), samples were analyzed by flow cytometry for fluorescein-folate binding.

[7] = test system: PSMA+ MDA-MB-231 and CA9+ MDA-MB-231; assay: Two tumors treated with cocktail of bridge molecules in vivo (Example 42); set-up: species or system NSG mice; conditions: only one of the bridges infused
Source text: In order to evaluate whether a cocktail of bridge molecules can eliminate two tumors expressing orthogonal antigens, we established two different tumor models. As a first tumor model, each of PSMA+ MDA-MB-231 and CA9+ MDA-MB-231 were implanted into NSG mice at two different locations (i.e. right flank: CA9+ MDA-MB-231, left flank: PSMA+ MDA-MB-231). For the second tumor model, PSMA+ MDA-MB-231 and CA9+ MDA-MB-231 were pre-mixed at a 1:1 ratio and implanted at one location.
PSMA+ MDA-MB-231 and CA9+ MDA-MB-231 were implanted into NSG mice (Jackson Laboratory, ME) either at two different locations (i.e. right flank: PSMA+ MDA-MB-231, left flank: CA9+ MDA-MB-231) or one location after two tumor cells were pre-mixed (i.e. 50% of PSMA+ MDA-MB-231 and 50% of CA9+ MDA-MB-231). When tumors reached ˜100 mm3 in size, anti-fluorescein CAR T cells (8×10^6) were injected plus FITC-DUPA, FITC-CA9 or both. Tumors were measured every other day with calipers, and tumor volume was calculated according to the equation: Tumor volume=½(L×W2) where L is the longest axis of the tumor and W is the axis perpendicular to L. Results are shown in FIGS. 49A and 49B.

[8] = test system: MDA-MB-231 tumors; assay: Comparison of three rescue reagents (Example 32); conditions: for order of sCRS severity (from worst to least): 10 hours after rescue, Leucovorin 10, folic acid 10, sodium fluorescein 260 umol/kg; for tumor outcome of rescued mice: single rescue dose, EC17 continued
Procedure: To evaluate whether mice with FITC-CAR-T therapy related sCRS can be rescued by using competitors which may displace EC17 from either FITC-CAR-T or FR+ tumor cells, 49 NSG mice bearing MDA-MB-231 tumors (150-250 mm3) were administered with excess FITC-CAR-T cells (8 million), 36 of them were then dosed with 500 nmol/kg EC17 48 hours post CAR-T administration, 6 of them were not dosed with EC17 and were used as “No EC17” control, and 7 of them were dosed with 260 umol/kg sodium fluorescein (no EC17 but Fluorescein) to test its toxicity. […] Each group was i.v. injected with 10 umol/kg of Leucovorin, or 10 umol/kg folic acid, or 260 umol/kg sodium fluorescein, or nothing as an un-rescued control. […] Mouse body weight changes were also monitored as the indication of toxicity. […] To evaluate whether the rescue injections affect the anti-tumor activity of FITC-CAR-T cells, these mice were dosed with 500 nmol/kg EC17 twice per week (days 9, 11, 15, 18, 22, 25, etc.) and the tumor size was monitored.

[9] = test system: MDA-MB-231 cells; assay: Control of CRS with bridge molecules in vivo (Example 43); set-up: species or system NSG mice
Procedure: Mice were maintained on folic acid-deficient diet (TD.95247, Envigo) in order to reduce the level of folic acid in mice to a physiological levels found in humans. Tumors were measured every other day with calipers, and tumor volume was calculated according to equation: Tumor volume=½(L×W^2) where L is the longest axis of the tumor and W is the axis perpendicular to L. Mouse blood was also collected to measure cytokine levels (e.g. IL-2, IL-6, IFNγ, and TNFα) using LEGENDplex bead-based immunoassay (Biolegend, CA) and systemic toxicity was monitored by measuring body weight loss. All animal care and use followed by National Institutes of Health (NIH) guidelines and all experimental protocols were approved by the Purdue Animal Care and Use Committee.

[10] = test system: MDA-MB-231; assay: Effect of Folate-FITC on CAR-T cell number and serum cytokines (Example 21); format: in vivo, NSG mice; conditions: 500 nmole/kg, 10^7 CAR T cells, Day 6
Procedure: The triple negative human breast cancer cell line (i.e. MDA-MB-231) was subcutaneously implanted into the shoulders of immunodeficient (e.g. NSG) mice. When tumor volume reached around 50-100 mm^3, anti-FITC CAR T cells (10^7 cells) were intravenously introduced with either FITC-folate (500 nmole/kg) or PBS. To monitor CAR T cell proliferation and pro-inflammatory cytokine production, mice blood was collected at Day 6. CAR T cell proliferation was evaluated by staining a whole blood sample with anti-human CD3 antibody (Biolegned) and detecting GFP expression on the CD3 positive T cell population. Pro-inflammatory cytokine production was measured by a bead-based immunoassay (Legendplex kit from biolegend).

[11] = within 3 hours, 6 μmole/kg free fluorescein
[12] = 100-fold excess on days 4 and 6

Compound: Nc1nc(=O)c2nc(CNc3ccc(C(=O)N[C@@H](CCC(=O)O)C(=O)O)cc3)cnc2[nH]1 [EC0923]
IFN-gamma blood concentration ([1]; competitor group): decreased | survival of mice at the first week of treatment ([1]; competitor group: 100-fold excess of free folate mixed with FITC-Folate at day 4 and day 6): all of the mice in both the break and competitor groups survived | control of CAR T cell mediated toxicity ([2]; 100-fold excess with FITC-Folate (FITC-Folate+FA Competitor)): able to control the degree of CAR T cell activation to alleviate CAR T cell mediated toxicity | control of CAR T cell mediated toxicity ([2]; termination of FITC-Folate plus excess free folic acid (Break+FA Competitor)): better efficacy in decreasing CAR T cell mediated toxicity compared to each approach alone

Compound: Nc1nc2ncc(CNc3ccc(C(=O)N[C@@H](CCCN[C@H](CC(=O)O)C(=O)N[C@H](CC(=O)O)C(=O)O)C(=O)O)cc3)nc2c(=O)[nH]1 [EC0923]
time until mice looked normal ([3]; one dose 10 μmoles/kg at sCRS): 4 days | time until mice started to move and look for food ([3]; one dose 10 μmoles/kg at sCRS): 4 h | time until mice were active again ([3]; one dose 10 μmoles/kg at sCRS): 24 h | time until tumors disappeared ([3]; rescued mice, routine EC17 dosing three times per week resumed): 4 weeks | complete response ([1]; competitor group (100-fold excess EC0923 + FITC-Folate)): 75% | time until mice looked normal [4]: 4 days | time until mice started to move and look for food [4]: 4 h | time until mice were active again [4]: 24 h | tumor outcome four weeks later ([4]; rescue treatment, EC17 continued): tumors were eliminated | earliest time of increased CAR-T count in blood [5]: 6 h | CAR-T number in blood [5]: increase of CAR-T number in blood circulation

Compound: O=C(O)CC[C@H](NC(=O)N[C@@H](CCC(=O)NCCCCCCCC(=O)N[C@@H](Cc1ccccc1)C(=O)N[C@@H](Cc1ccccc1)C(=O)NCCNC(=S)Nc1ccc(-c2c3ccc(=O)cc-3oc3cc(O)ccc23)c(C(=O)O)c1)C(=O)O)C(=O)O [FITC-DUPA]
binding to CAR-expressing T cells [6]: able to bind to the CAR-expressing T cells | growth of tumor expressing unmatched antigen [7]: continuously grew

Compound: Nc1nc2c(c(=O)[nH]1)N(C=O)C(CNc1ccc(C(=O)N[C@@H](CCC(=O)O)C(=O)O)cc1)CN2 (some centres unmarked) [Leucovorin]
order of sCRS severity (from worst to least) [8]: no rescue group>leucovorin rescue group>folic acid rescue group>sodium fluorescein rescue group>no EC17 group | tumor outcome of rescued mice [8]: complete response

Compound: O=C1OC2(c3ccc(O)cc3Oc3cc(O)ccc32)c2ccccc21 [fluorescein, reference compound]
time to decrement of plasma IFNγ ([9]; post fluorescein injection): 6 h | decrease of plasma IL-2 [9, 11]: > 50% | decrease of plasma IL-6 [9, 11]: > 50% | decrease of plasma TNF-α [9, 11]: > 50% | time until mice looked normal [4]: 4 days | time until mice started to move and look for food [4]: 4 h | time until mice were active again [4]: 24 h

CAR-T displacement compared with EC0923 ([5]; 10 umol/kg): more CAR-T displacement than folate
Compound: Nc1ccc2c(c1)C(=O)OC21c2ccc(O)cc2Oc2cc(O)ccc21 [fluoresceinamine]
earliest time of increased CAR-T count in blood [5]: 6 h | CAR-T number in blood [5]: increase of CAR-T number in blood circulation

Compound: Nc1nc2ncc(CNc3ccc(C(=O)N[C@@H](CCC(=O)O)C(=O)O)cc3)nc2c(=O)[nH]1 [folic acid, reference compound]
IFNγ level [9, 12]: reduced the level of IFNγ | body weight [9, 12]: rapidly prevented the continuous weight loss | therapeutic potency of CAR T cell therapy [9, 12]: enhanced the therapeutic potency | order of sCRS severity (from worst to least) [8]: no rescue group>leucovorin rescue group>folic acid rescue group>sodium fluorescein rescue group>no EC17 group | tumor outcome of rescued mice [8]: complete response

Compound: FITC-Folate [EC17]
anti-FITC CAR T cell proliferation in blood [10]: proliferated significantly | pro-inflammatory cytokines (IL-2, TNF-α, IFN-γ) [10]: significantly produced

Compound: FITC-PEG2-CA9 [FITC-CA9]
binding to CAR-expressing T cells [6]: able to bind to the CAR-expressing T cells | growth of tumor expressing unmatched antigen [7]: continuously grew
